{
  "source": "patent US7666307B2",
  "about": "“Particle size reduction of bioactive compounds” (K.U. Leuven Research & Development, priority 2003, dated 2010)",
  "key": {"[1]": {"conditions": "cited from earlier work"}, "[2]": {"assay": "Dissolution test of loperamide samples, USP 24 paddle method, HPLC", "assay_type": "physicochemical", "conditions": "37 °C, paddle 100 rpm", "procedure": "Four different samples containing loperamide (commercially available from Janssen Pharmaceutica, Beerse, Belgium) were prepared and their dissolution profiles were measured. 1 g/l of loperamide and 10 g/l of Aerosil 380 (a silicate commercially available from Degussa, Dusseldorf, Germany) were mixed with bi-distilled water in a mortar. An untreated sample was prepared by fast solidification of part of this suspension in a pre-cooled ball that was kept in liquid nitrogen followed by freeze-drying. […]\nDissolution experiments were performed in a SR8 PLUS Hanson dissolution test station (commercially available from Chatsworth, United States) while using the USP 24 method (paddle method, 100 rpm). […] The corresponding concentrations were determined from the calibration curve with HPLC.\nThe HPLC system used for this determination consisted of LiChroGraph® L-7100 HPLC pump, an auto-sampler model L-7200 equipped with a 100 μl loop, a UV detector model L-7400 set at 220 nm, and an Interface D-7000, all from commercially available from Merck-Hitachi (Darmstadt, Germany). UV signals were monitored and peaks were integrated using the D-7000 HSM software. […]"}},
  "data": [
    {"smiles": "C#C[C@]1(O)CC[C@H]2[C@@H]3CCC4=Cc5oncc5C[C@]4(C)[C@H]3CC[C@@]21C", "note": "[danazol]", "values": [
      {"measurement": "size to which 10% of the particles are reduced", "setting": "[1]; dispersion refined by electric field, U.S. Pat. No. 5,503,723", "result": 180, "unit": "nm"}
    ]},
    {"smiles": "CN(C)C(=O)C(CCN1CCC(O)(c2ccc(Cl)cc2)CC1)(c1ccccc1)c1ccccc1", "note": "[loperamide]", "values": [
      {"measurement": "dissolution rate versus corresponding untreated sample", "setting": "[2]; magnetic treatment in the presence of a silicate (Aerosil)", "result": "significantly increased"},
      {"measurement": "dissolution rate versus corresponding untreated sample", "setting": "[2]; magnetic treatment in the presence of a surfactant (Tween 80)", "result": "significantly increased"}
    ]},
    {"smiles": "CCCCNc1ccc(C(=O)OCCN(C)C)cc1", "note": "[tetracaine]", "values": [
      {"measurement": "average particle diameter", "setting": "[1]; aqueous nanosuspensions, U.S. Pat. No. 5,858,410", "result": 91, "unit": "nm"}
    ]}
  ]
}
